Measurements published in patent US4279909A, “Antiallergic method” (Fujisawa Pharmaceutical Co., Ltd., priority 1980, dated 1981).
Counter-ions that a name gives are not always drawn.

How the values were obtained:
[1] = test system: anaphylactic bronchoconstriction; test: Anaphylactic bronchoconstriction in guinea-pigs sensitized with homologous antiserum; assay type: in vivo; details: Cavia porcellus, iv; guinea-pig; intravenously 30 seconds before antigen
Procedure: (c) Guinea-pig antiserum against egg albumin
Five mg of egg albumin emulsified in 0.5 ml of physiological saline and 0.5 ml of Freund's incomplete adjuvant was used as the antigen.
The emulsion was given subcutaneously in a single dose of 1 ml divided equally (0.25 ml) to the four foot pads of male Hartly strain guinea pigs, each weighing 250 to 300 g. Starting two weeks after dosing with the aforementioned emulsion 0.1% egg albumin emulsified in physiological saline was given subcutaneously in equally divided (0.1 ml) doses of 0.4 ml once a week for 4 weeks to four sites on the backs of the test animals. Blood samples were collected from the carotid artery one week after the last injection, and centrifuged at 3000 r.p.m. at room temperature for 15 minutes. The antisera thus obtained were stored at -20° C.
(4) Anaphylactic bronchoconstriction in guinea-pigs sensitized with homologous antiserum
Male Hartly strain guinea-pigs were sensitized with an intravenous injection of 1 ml of homologous antiserum against egg albumin. And 48 hours later, the animals were immobilized with an intraperitoneal dose of 100 mg/kg of gallamine. The trachea was cannulated for artificial respiration which was performed with a miniature respiratory pump (3 ml/stroke, 60 strokes/minute). […]

histamine = test: Antagonistic effect on histamine in vitro (isolated guinea-pig ileum); details: histamine 1.0 × 10^-7 g/ml
Procedure: (5) Antagonistic effect on histamine in vitro
The ileum was connected to a strain gauge transducer and the contractions were recorded isometrically.

P.C.A. reaction = test: Passive cutaneous anaphylaxis (P.C.A.) in rats sensitized with homologous hyperimmune antiserum; assay type: in vivo; details: iv, rat, intravenously 30 seconds before antigen, read-out: ED50 (inhibitory effect of P.C.A. reaction)
Procedure: (b) Rat hyperimmune antiserum against egg albumin
Male Sprague-Dawley JCL strain rats were injected in the four foot pads with 10 mg of egg albumin emulsified in 0.5 ml of saline and 0.5 ml of Freund's complete adjuvant in divided portions. Seven days later, the animals were injected intramuscularly at three sites on a shaved area of their backs with a total of 5 mg of egg albumin emulsified in 0.5 ml of saline and 0.5 ml of Freund's complete adjuvant. On days 28 to 30, the animals were injected intracutaneously at two sites on the back with 0.2 mg of egg albumin in 0.2 ml of saline. The antiserum was obtained 7 days after the last injection and stored at -20° C.
(3) Passive cutaneous anaphylaxis (P.C.A.) in rats sensitized with homologous hyperimmune antiserum
P.C.A. reaction was performed in male Sprague-Dawley JCL strain rats passively sensitized with homologous hyperimmune antiserum against egg albumin. That is, 0.1 ml of the antiserum was injected into the skin on the back of rats, and 4 hours later 1 ml of mixture of egg albumin 5 mg and Evans' blue 5 mg was injected intravenously. One hour later, the animals were killed and the skin was removed. Evans' blue was then extracted from the sensitized spot with 10 ml of 4:1 mixture of aceton and 2% solution of RBS-25. The quantity of Evans' blue was determined by colorimetry at 620 mμ. The drug was given intravenously 30 seconds before dosing with antigen.

Acute toxicity in mouse = details: in vivo, po; female mouse, orally, seven days
Procedure: (§1) (6) Acute toxicity in mouse and rat
(§2) Each ten male and female ICR-JCL strain mice and Sprague-Dawley-JCL strain rats were used for each dose.
(§3) Test compound was given to animals in a form of suspension in 0.5% methyl cellose orally. After administration, the incidence of the death was recorded for successive seven days. LD50 values were calculated by the method of Lichfield-Wilcoxon method.

[2] = test system: passive cutaneous anaphylaxis (P.C.A.); test: Antagonism to passive cutaneous anaphylaxis (P.C.A.) in rat sensitized with homologous reaginic antiserum; assay type: in vivo; details: test compound given orally 2 hours and intravenously 5 minutes before antigen
Procedure: (a) Rat reaginic antiserum against egg albumin
One mg of egg albumin emulsified in 0.5 ml of B. pertussisdiphtheria mixed vaccine (Tanabe Seiyaku Company Ltd.) and 0.5 ml of Freund's incomplete adjuvant (Difco) was used as the antigen. The emulsion was given subcutaneously in a single dose of 1 ml divided equally (0.25 ml) to the four foot pads of male Sprague-Dawley JCL strain rats aged 6 weeks, each weighing 170-220 g. Blood samples were collected from the femoral artery 12 days after injection, and centrifuged at 3000 r.p.m. at 4° C. for 15 minutes. The antisera thus obtained were stored at -20° C.
(2) Antagonism to passive cutaneous anaphylaxis (P.C.A.) in rat sensitized with homologous reaginic antiserum
Ten male Sprague-Dawley-JCL strain rats, weighing 290-310 g were used for each dose. The rat reaginic antiserum against egg albumin was used at a dilution 1:4. The animals were sensitized with 0.1 ml of the antiserum injected intracutaneously on the depilated backs of the rats. […] It was further centrifuged at 2000 r.p.m. for 15 minutes and the quantity of the dye in the supernatant solution was determined by colorimetry at 620 mμ. […] The inhibitory effect of test compound was determined from the dye amounts measured in comparison with the control group and the treated group and the ED50 value was calculated according to Litchfield-Wilcoxon method.

Acute toxicity in rat = details: in vivo, po; female rat, orally, seven days
Procedure: as §1, §2, §3

O=C(Cn1c(=O)sc2ccc(Cl)cc21)N1CCNCC1 [Compound A, 3-(1-piperazinyl)carbonylmethyl-5-chloro-2-benzothiazolinone]
ED50 [1]: 56 mg/kg
Percentage inhibition of histamin (histamine; 1.0 × 10^-5 g/ml test compound): 14%
Percentage inhibition of histamin (histamine; 1.6 × 10^-4 g/ml test compound): 82%
Percentage inhibition of histamin (histamine; 4.0 × 10^-5 g/ml test compound): 48%
Percentage inhibition of histamin (histamine; 8.0 × 10^-5 g/ml test compound): 59%
ED50 (P.C.A. reaction): 9 mg/kg
LD50 at 168 h (Acute toxicity in mouse): 219 mg/kg
ED50 [2]: 50 mg/kg
LD50 at 168 h (Acute toxicity in rat): 734 mg/kg

O=C(Cn1c(=O)sc2ccc(Cl)cc21)N1CCN(CCO)CC1 [Compound B, 3-[4-(2-hydroxyethyl)-1-piperazinylcarbonylmethyl]-5-chloro-2-benzothiazolinone hydrochloride]
ED50 (P.C.A. reaction): 28 mg/kg

O=C(Cn1c(=O)sc2ccc(Cl)cc21)N1CCC(O)CC1 [Compound C, 3-(4-hydroxypiperidino)carbonylmethyl-5-chloro-2-benzothiazolinone]
ED50 (P.C.A. reaction): 32 mg/kg

O=C(O)c1cc(=O)c2c(OCC(O)COc3cccc4oc(C(=O)O)cc(=O)c34)cccc2o1 [Compound D, disodium chromoglycate, reference compound]
Percentage inhibition of histamin (histamine; 1.0 × 10^-5 g/ml test compound): 2%
Percentage inhibition of histamin (histamine; 1.6 × 10^-4 g/ml test compound): 1%
Percentage inhibition of histamin (histamine; 4.0 × 10^-5 g/ml test compound): 4%
ED50 (P.C.A. reaction): 105 mg/kg
